Reference: US20240309043A1, “THERAPEUTICALLY ACTIVE STEROIDAL DERIVATIVES” (Organon R&D Finland Ltd., priority 2017, published 2024)

What was measured:
Type in all cases: biochemical
[1] = biological target: T1, recombinant human 17β-HSD1 (Homo sapiens, UniProt P14061); assay: Inhibition of recombinant human 17β-HSD1; details: inhibitor 100 nM; 30 nM estrone, 1 mM NADPH, 30 min RT
T1 construct: made in house; host or cells: Sd9 (Sf9) insect cells, baculovirus (Bac to Bac Expression System)
T1 sequence (P14061 1-328): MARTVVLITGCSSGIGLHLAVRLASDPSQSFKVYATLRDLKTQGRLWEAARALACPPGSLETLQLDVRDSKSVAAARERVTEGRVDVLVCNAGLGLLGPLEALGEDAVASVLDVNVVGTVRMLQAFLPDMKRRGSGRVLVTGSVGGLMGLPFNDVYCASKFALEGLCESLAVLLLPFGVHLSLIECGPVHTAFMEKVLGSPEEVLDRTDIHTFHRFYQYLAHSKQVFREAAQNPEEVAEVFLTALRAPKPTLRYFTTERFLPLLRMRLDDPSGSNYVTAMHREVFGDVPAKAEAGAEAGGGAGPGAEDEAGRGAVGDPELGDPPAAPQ
Experimental: 17β-HSD1 production and isolation: Recombinant baculovirus was generated by the “Bac to Bac Expression System” (Invitrogen). Recombinant bacmid was transfected to Sd9 insect cells using “Cellfectin Reagent” (Invitrogen). 60 h later cells were harvested; the microsomal fraction was isolated as described by Puranen, T. J., Poutanen, M. H., Peltoketo, H. E., Vihko, P. T. and Vihko, R. K. (1994) Site-directed mutagenesis of the putative active site of human 17 β-hydroxysteroid dehydrogenase type 1. Biochem. J. 304: 289-293. Aliquots were stored frozen until determination of enzymatic activity.
Assay—Inhibition of recombinant human 17β-HSD1: Recombinant protein (1 μg/ml) was incubated in 20 mM KH2PO4 pH 7.4 with 30 nM estrone (including 800 000 cpm/ml of ^3H-estrone) and 1 mM NADPH for 30 min at RT, in the presence of the potential inhibitor at concentrations 1 μM or 0.1 μM. Inhibitor stock solutions were prepared in DMSO. Final concentration of DMSO was adjusted to 1% in all samples. The enzyme reaction was stopped by addition of 10% trichloroacetic acid (final concentration). Samples were centrifuged in a microtiter plate at 4000 rpm for 10 min. Supernatants were applied to reverse phase HPLC on a Waters Symmetry C18 column, equipped with a Waters Sentry Guard column. Isocratic HPLC runs were performed at RT at a flow rate of 1 ml/min in acetonitrile:water 48:52 as running solvent. Radioactivity was monitored in the eluate by a Scintillation Analyzer. Total radioactivity for estrone and estradiol were determined in each sample and percent conversion of estrone to estradiol was calculated according to the following formula:
(§1) [formula] Percent inhibition was calculated flowingly: % inhibition=100−% conversion

[2] = biological target: T2, recombinant human 17β-HSD2 (Homo sapiens, UniProt P37059); assay: Inhibition of recombinant human 17β-HSD2; details: inhibitor 1 μM; 50 nM estradiol, 1 mM NADH, 30 min RT
T2 construct: made in house; host or cells: Sd9 (Sf9) insect cells, baculovirus (Bac to Bac Expression System)
T2 sequence (P37059 1-387): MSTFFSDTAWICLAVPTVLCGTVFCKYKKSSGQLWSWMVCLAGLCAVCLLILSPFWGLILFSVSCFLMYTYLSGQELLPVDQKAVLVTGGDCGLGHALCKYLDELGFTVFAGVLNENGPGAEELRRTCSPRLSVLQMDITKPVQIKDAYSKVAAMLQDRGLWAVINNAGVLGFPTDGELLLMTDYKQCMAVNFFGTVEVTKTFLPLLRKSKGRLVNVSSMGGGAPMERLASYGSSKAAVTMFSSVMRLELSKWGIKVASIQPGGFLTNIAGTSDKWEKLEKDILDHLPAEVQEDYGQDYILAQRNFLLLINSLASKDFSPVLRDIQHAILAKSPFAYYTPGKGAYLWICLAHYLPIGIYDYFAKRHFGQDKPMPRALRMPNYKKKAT
Experimental: 17β-HSD2 production and isolation: Similarly to 17β-HSD1 the Recombinant baculovirus was generated by the “Bac to Bac Expression System” (Invitrogen). Recombinant bacmid was transfected to Sd9 insect cells using “Cellfectin Reagent” (Invitrogen). 60 h later cells were harvested and supernatant were fractionated by the following protocol: • cells were dissolved into 40 ml of A-buffer (40 mM TRIS, pH 8.0, 20% glycerol, 20 μM NAD, 0.4 mM PMSF, 150 mM NaCl, 0.5% dodecyl-β-maltoside+protease inhibitor cocktail) • cells were sonicated • lysate was incubated on ice for 15 min • lysate was centrifuged 5000 rpm 15 min, +4° C. • centrifugation of the supernatant 180 000 g 30 min, +4° C. • pellet was dissolved into 8 ml of A-buffer • not resuspended material was removed by centrifugation 5000 rpm min, +4° C. • the clear supernatant was divided into 100 μl aliquots and were stored frozen until determination of enzymatic activity.
The amount of 17β-HSD2 was analysed by immunoblotting and total protein concentration of each extract batch was determined.
Assay—Inhibition of recombinant human 17β-HSD2: Recombinant protein (4 μg/ml) was incubated in 20 mM KH2PO4 pH 8.5 with 50 nM estradiol (including 800 000 cpm/ml of ^3H-estradiol) and 1 mM NADH for 30 min at RT, in the presence of the potential inhibitor at concentrations 1 μM or 0.1 μM. Inhibitor stock solutions were prepared in DMSO. Final concentration of DMSO was adjusted to 1% in all samples. The enzyme reaction was stopped by addition of 10% trichloroacetic acid (final concentration). Samples were centrifuged in a microtiter plate at 4000 rpm for 10 min. Supernatants were applied to reverse phase HPLC on a Waters Symmetry C18 column, equipped with a Waters Sentry Guard column. Isocratic HPLC runs were performed at RT at a flow rate of 1 ml/min in acetonitrile:water 48:52 as running solvent. Radioactivity was monitored in the eluate by a Scintillation Analyzer. Total radioactivity for estrone and estradiol were determined in each sample and percent conversion of estradiol to estrone was calculated according to the following formula:
as §1

[3] = tested on: HSD1 enzyme that is expressed in rabbit placenta tissue; assay: Inhibition of E1 to E2 conversion in rabbit placenta tissue homogenate; details: inhibitor 100 nM, 30 nM estrone, 30 min
Experimental: The assay is based on an enzymatic reaction where HSD1 enzyme that is expressed in rabbit placenta tissue converts its natural substance estrone (E1) to estradiol (E2) in the presence of a co-factor β-NADPH.
Homogenization of rabbit placenta tissue: Weight a piece of the frozen tissue into a Precellys ck28 bead tube. Add buffer solution (20 mM KH2PO4 with 1 mM EDTA, pH 7,4) in 1:2 ratio (e.g. 300 mg of tissue:600 μl reaction buffer solution). Insert the bead tubes to homogenizer and homogenize 2×30 s. 6000 rpm. Centrifugated 5 min., 2600 rpm at +4° C. and collect supernatant. Aliquots of homogenate are stored in −80° C.
Assay—Inhibition of E1 to E2 conversion in rabbit placenta tissue: The reaction takes place in a buffer solution (20 mM KH2PO4 with 1 mM EDTA, pH 7,4), including appropriate amount of rabbit placenta homogenate, co-factor (1 mM β-NADPH), Substrate (30 nM estrone), labelled substrate as tracer (5 nM [^3H]-estrone). During a 30-minute incubation part of the estrone is converted to estradiol. The reaction is stopped by lowering the pH to 1 with 10% trichloro acetic acid (TCA). The substrate and conversion products are analyzed by HPLC and a Scintillation counter analyzer. Total radioactivity for estrone and estradiol were determined in each sample and percent conversion of estrone to estradiol was calculated according to the following formula:
Percent inhibition was calculated flowingly: % inhibition=100−% conversion.

Row | Structure (SMILES) | inhibition at 0.1 µM [1] | inhibition at 1 µM [2] | Rabbit placenta inhibition % @100 nM [3]
1 | COc1ccc(NC(=O)CC[C@@H]2C/C(=N\O)[C@@]3(C)CCC4c5ccc(F)cc5CCC4C23)nc1 (stereo partly drawn) [Compound 28, 3-((13S,15R,E)-3-fluoro-17-(hydroxyimino)-13-methyl-7,8,9,11,12,13,14,15,16,17-decahydro-6H-cyclopenta[a]phenanthren-15-yl)-N-(5-methoxypyridin-2-yl)propanamide] | 74% | 7% | 48%
2 | COc1ccc(NC(=O)CC[C@@H]2C/C(=N\O)[C@@]3(C)CCC4c5ccc(F)cc5CCC4C23)nn1 (stereo partly drawn) [Compound 30, 3-((13S,15R,E)-3-fluoro-17-(hydroxyimino)-13-methyl-7,8,9,11,12,13,14,15,16,17-decahydro-6H-cyclopenta[a]phenanthren-15-yl)-N-(6-methoxypyridazin-3-yl)propanamide] | 40% | 3% | 79%
3 | Cc1ccc(NC(=O)CC[C@@H]2C/C(=N\O)[C@@]3(C)CCC4c5ccc(F)cc5CCC4C23)nn1 (stereo partly drawn) [Compound 32, 3-((13S,15R,E)-3-fluoro-17-(hydroxyimino)-13-methyl-7,8,9,11,12,13,14,15,16,17-decahydro-6H-cyclopenta[a]phenanthren-15-yl)-N-(6-methylpyridazin-3-yl)propanamide] | 35% | 9% | 55%
4 | CN(C(=O)CC[C@@H]1C/C(=N\O)[C@@]2(C)CCC3c4ccc(F)cc4CCC3C12)C1COC1 (stereo partly drawn) [Compound 36, 3-((13S,15R,E)-3-fluoro-17-(hydroxyimino)-13-methyl-7,8,9,11,12,13,14,15,16,17-decahydro-6H-cyclopenta[a]phenanthren-15-yl)-N-methyl-N-(oxetan-3-yl)propanamide] | 33% | 10% | 12%
5 | CCN(CC)C(=O)CC[C@@H]1C/C(=N\O)[C@@]2(C)CCC3c4ccc(F)cc4CCC3C12 (stereo partly drawn) [Compound 40, N,N-diethyl-3-((13S,15R,E)-3-fluoro-17-(hydroxyimino)-13-methyl-7,8,9,11,12,13,14,15,16,17-decahydro-6H-cyclopenta[a]phenanthren-15-yl)propanamide] | 46% | 6% | 6%
6 | C[C@]12CCC3c4ccc(Cl)cc4CCC3C1[C@H](CCC(=O)Nc1cccnn1)C/C2=N\O (stereo partly drawn) [Compound 44, 3-((13S,15R,E)-3-chloro-17-(hydroxyimino)-13-methyl-7,8,9,11,12,13,14,15,16,17-decahydro-6H-cyclopenta[a]phenanthren-15-yl)-N-(pyridazine-3-yl)propanamide] | 20% | 2% | 11%
7 | C[C@]12CCC3c4ccc(Cl)cc4CCC3C1[C@H](CCC(=O)NC1=NCCS1)C/C2=N\O (stereo partly drawn) [Compound 46, 3-((13S,15R,E)-3-chloro-17-(hydroxyimino)-13-methyl-7,8,9,11,12,13,14,15,16,17-decahydro-6H-cyclopenta[a]phenanthren-15-yl)-N-(4,5-dihydrothiazol-2-yl)propanamide] | 55% | 0% | 50%
8 | C[C@]12CCC3c4ccc(Cl)cc4CCC3C1[C@H](CCC(=O)N1CCC3(CCOCC3)C1)C/C2=N\O (stereo partly drawn) [Compound 48, 3-((13S,15R,E)-3-chloro-17-(hydroxyimino)-13-methyl-7,8,9,11,12,13,14,15,16,17-decahydro-6H-cyclopenta[a]phenanthren-15-yl)-1-(8-oxa-2-azaspiro[4.5]decan-2-yl)propan-1-one] | 30% | -2% | 1%
9 | COc1ccc(NC(=O)CC[C@@H]2C/C(=N\O)[C@@]3(C)CCC4c5ccc(Cl)cc5CCC4C23)nn1 (stereo partly drawn) [Compound 50, 3-((13S,15R,E)-3-chloro-17-(hydroxyimino)-13-methyl-7,8,9,11,12,13,14,15,16,17-decahydro-6H-cyclopenta[a]phenanthren-15-yl)-N-(6-methoxypyridazin-3-yl)propanamide] | 37% | -2% | 42%
10 | CCN(CC)C(=O)CC[C@@H]1C/C(=N\O)[C@@]2(C)CCC3c4ccc(Cl)cc4CCC3C12 (stereo partly drawn) [Compound 52, 3-((13S,15R,E)-3-chloro-17-(hydroxyimino)-13-methyl-7,8,9,11,12,13,14,15,16,17-decahydro-6H-cyclopenta[a]phenanthren-15-yl)-N,N-diethylpropanamide] | 64% | 2% | 6%
11 | Cc1cc(NC(=O)CC[C@@H]2C/C(=N\O)[C@@]3(C)CCC4c5ccc(Cl)cc5CCC4C23)no1 (stereo partly drawn) [Compound 54, 3-((13S,15R,E)-3-chloro-17-(hydroxyimino)-13-methyl-7,8,9,11,12,13,14,15,16,17-decahydro-6H-cyclopenta[a]phenanthren-15-yl)-N-(5-methylisoxazol-3-yl)propanamide] | 47% | 0% | 10%
